Where a chain is given by its changes, count along the chain named.
Key:
[1] = target: T1, A2-S481T/C482T (mutant ASCT2) (Homo sapiens, UniProt Q15758, C467T/S466T); test: Two electrode voltage clamp, substrate-activated anion current in oocytes expressing A2-S481T/C482T; format: cell-based
T1 construct: expressed in transfected cells; host or cells: Xenopus laevis oocytes (cRNA injection)
T1 sequence (Q15758 1-541 S466T/C467T): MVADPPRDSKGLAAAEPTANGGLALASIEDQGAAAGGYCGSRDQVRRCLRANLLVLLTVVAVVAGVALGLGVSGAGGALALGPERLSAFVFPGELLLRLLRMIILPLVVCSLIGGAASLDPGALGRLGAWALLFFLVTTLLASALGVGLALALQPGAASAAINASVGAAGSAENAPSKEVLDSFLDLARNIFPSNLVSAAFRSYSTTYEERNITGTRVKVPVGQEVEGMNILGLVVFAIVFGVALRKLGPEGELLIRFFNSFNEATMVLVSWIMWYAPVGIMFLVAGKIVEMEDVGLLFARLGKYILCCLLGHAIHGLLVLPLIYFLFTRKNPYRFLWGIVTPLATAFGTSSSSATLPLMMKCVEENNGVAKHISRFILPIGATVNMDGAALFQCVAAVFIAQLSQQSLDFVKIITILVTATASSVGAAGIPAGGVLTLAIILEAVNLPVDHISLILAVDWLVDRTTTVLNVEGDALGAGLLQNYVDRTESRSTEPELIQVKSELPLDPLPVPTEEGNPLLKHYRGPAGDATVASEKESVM
Protocol: All chemicals were obtained from Sigma unless otherwise stated. Stage V oocytes were harvested from female Xenopus laevis (frogs) which were obtained from Nasco (Fort Alkinson, USA). Frogs were anaesthetised with 6.5 mM tricaine neutralised with 7.14 mM sodium bicarbonate. After making an incision in the abdomen of the frog, ovarian sacs were removed and stored in OR-2 buffer (82.5 mM NaCl, 2 mM KCl, 1 mM MgCl2, 5 mM hemisodium HEPES, pH 7.5). This surgical procedure follows a protocol (#2016/970) approved by the University of Sydney Animal Ethics Committee under the Australian Code of Practice for the Care and Use of Animals for Scientific Purposes. To isolate oocytes, the ovarian sacs were cut into small sections before being digested by agitation with 2 mg per ml Collagenase A for 1–2 h. Following digestion, defoliculated oocytes were initially rinsed with OR-2, followed by frog Ringer’s solution (96 mM NaCl, 2 mM KCl, 1 mM MgCl2, 1.8 mM CaCl2, 5 mM hemisodium HEPES, pH 7.5). A total of 20 ng of transporter cRNA was injected into oocytes which were stored in frog Ringer’s solution supplemented with 0.1% gentamycin, 50 μg per ml tetracycline, 2.5 mM pyruvate and 0.5 mM theophylline at 16–18 °C.
After 2–4 days of microinjection, current recordings were made using the two electrode voltage clamp technique with a Geneclamp 500 amplifier (Axon Instruments, Foster City, CA) interfaced with a MacLab 2e chart recorder (ADI Instruments, Sydney, Australia) using the chart software, and a Digidata 1322A (Axon Instruments) controlled by an IBM-compatible computer using the pClamp software (version 10, Molecular Devices, Union City, CA). The current–voltage relationships for substrate elicited conductances were obtained by subjecting cells to 200 ms voltage pulses between −100 mV and + 60 mV in 10 mV steps. Current–voltage relationships were calculated by subtracting steady state current measurements in the absence of substrate from corresponding current measurements in the presence of substrate. […]

ASCT2 = target: T2, ASCT2 (Homo sapiens, UniProt Q15758); test: Radiolabelled uptake in oocytes expressing ASCT2; format: cell-based; conditions: 10 µM radiolabelled substrate, 10 min, room temperature
T2 sequence (Q15758 1-541): T1 sequence (Q15758 1-541 S466T/C467T) with T466S, T467C
Protocol: Uptake of L-[^3H]amino acids (PerkinElmer Life Sciences) was measured in oocytes expressing wild-type and mutant ASCT1, and uninjected oocytes. Five oocytes were incubated in Cl^−-containing buffer with 10 µM L-[^3H]amino acids at room temperature. After 10 min, uptake was terminated by three rapid washes in ice-cold Cl^−-containing buffer followed by lysis in 50 mM NaOH and 1% SDS. L-[^3H]amino acids were measured by scintillation counting using a Trilux beta counter (PerkinElmer Life Sciences).
Supplementary Figure 6. GltPh‐R397C, ASCT1 and ASCT2 are functional cysteine transporters. (a) […]
7.5) containing 1 µM of valinomycin and the 10µM 35S‐cysteine. […]
(1 picture or pasted object on this page, not shown here)

[2] = A2-S481T/C482T in oocytes, NO3−-containing buffer, current at +60 mV, dash = substrate did not generate currents

| Compound | GPNA % inhibition of L-serine activated current ([1]; A2-S481T/C482T, GPNA co-applied with EC50 of L-serine, 1 mM GPNA (Table 1 footnote)) | EC50 of substrate-activated current [1, 2] | Radiolabelled substrate uptake into oocytes (in words) (ASCT2) | EC50 [1, 2] |
| --- | --- | --- | --- | --- |
| N[C@@H](CCC(=O)Nc1ccc([N+](=O)[O-])cc1)C(=O)O [GPNA, glutamyl-p-nitroanilide] | 20 ± 3% |  |  |  |
| NC(=O)CC[C@H](N)C(=O)O [L-glutamine] |  | did not generate any currents | robust L-[^3H]glutamine uptake |  |
| N[C@@H](CO)C(=O)O [L-serine] |  |  | observe L-[^3H]serine uptake | 61 ± 7 µM |
| N[C@@H](CS)C(=O)O [L-cysteine] |  |  | robust L-[^35S]cysteine uptake |  |
